Assay results reported in ChEMBL document CHEMBL1201862, “PubChem BioAssay data set” (2004).
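Cells were grown in 96-well plates and exposed to each compound for 48 hours at five concentrations; endpoints were interpolated linearly between bracketing concentrations, or set to the highest concentration if not reached. GI50 marks 50% less growth.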 The source made the active and inactive calls. No stated cut-off is given here; in the data, active = GI50 up to about 1.1 µM and inactive = higher. Bridge positions count the residues as written; N and C are the ends. Square brackets hold non-standard residues; d marks the D form. Peptide text beside a SMILES is read from it. * marks the point of attachment. Cbz = O=C(OCc1ccccc1)*; Dab = NCC[CH](N)C(=O)O; Bn = c1ccc(C*)cc1

Columns and labels:
Test in all cases: DTP human tumour cell line panel, 48 h
[1] = test system: 786-0
[2] = test system: SK-MEL-5
[3] = test system: SW-620
[4] = test system: NCI-H522
[5] = test system: HCC 2998
[6] = test system: M14
[7] = test system: SF-295
[8] = test system: A549
[9] = test system: RXF 393
[10] = test system: Malme-3M
[11] = test system: HCT-15
[12] = test system: CAKI-1
[13] = test system: NCI-H23
[14] = test system: NCI-H460
[15] = test system: SR
[16] = test system: MDA-MB-435
[17] = test system: PC-3
[18] = test system: MDA-N
[19] = test system: DU-145

SMILES | GI50 [1] | GI50 [2] | GI50 [3] | GI50 [4] | GI50 [5] | GI50 [6] | GI50 [7] | GI50 [8] | GI50 [9] | GI50 [10] | GI50 [11] | GI50 [12] | GI50 [13] | GI50 [14] | GI50 [15] | GI50 [16] | GI50 [17] | GI50 [18] | GI50 [19]
COc1ccc2c([nH]c3c(O)c(-c4c(C)cc5c([nH]c6c(CC=C(C)C)c(OC)ccc65)c4O)c(C)cc32)c1CC=C(C)C [BISMURRAYAFOLINE B] | > 100 µM (inactive) | > 100 µM (inactive) | > 100 µM (inactive) | > 100 µM (inactive) | > 100 µM (inactive) | > 100 µM (inactive) | > 100 µM (inactive) | > 100 µM (inactive) | > 100 µM (inactive) | > 100 µM (inactive) | > 100 µM | > 100 µM (inactive) | > 100 µM (inactive) | > 100 µM (inactive) | > 100 µM (inactive) |  |  |  | 
c1cc2c(cnc3cscc32)s1 | > 100 µM (inactive) | > 100 µM (inactive) | > 100 µM (inactive) | > 100 µM (inactive) | > 100 µM (inactive) | > 100 µM (inactive) | > 100 µM (inactive) | > 100 µM (inactive) | > 100 µM (inactive) | > 100 µM (inactive) | > 100 µM | 95.5 µM (inactive) | > 100 µM (inactive) | > 100 µM (inactive) | > 100 µM (inactive) |  |  |  | 
COC(=O)C1=Cc2cc(OC)c(O)cc2[C@@H](c2ccc(O)c(OC)c2)[C@@H]1C(=O)OC | > 100 µM (inactive) | 43.9 µM (inactive) | > 100 µM (inactive) | > 100 µM (inactive) | > 100 µM (inactive) | > 100 µM (inactive) | > 100 µM (inactive) | > 100 µM (inactive) | 61.7 µM (inactive) | > 100 µM (inactive) | > 100 µM |  | > 100 µM (inactive) | > 100 µM (inactive) | > 100 µM (inactive) | 45.5 µM (inactive) | > 100 µM (inactive) | 36.9 µM (inactive) | > 100 µM (inactive)
CCCCCCCCCCCC(=O)OCC1OC(n2cc(F)c(=O)[nH]c2=O)C(N)C(O)C1O (stereo not given) | > 100 µM (inactive) | > 100 µM (inactive) | > 100 µM (inactive) | 75.3 µM (inactive) | > 100 µM (inactive) | > 100 µM (inactive) | > 100 µM (inactive) | > 100 µM (inactive) | > 100 µM (inactive) | > 100 µM (inactive) | > 100 µM | 49 µM (inactive) | 84.7 µM (inactive) | 78.9 µM (inactive) | 81.7 µM (inactive) |  |  |  | 
CC1CC(c2ccc([N+](=O)[O-])cc2)=Nc2ccccc2S1 (stereo not given) | 15.3 µM (inactive) | 21.5 µM (inactive) | 15.6 µM (inactive) | 20.3 µM (inactive) | 19.1 µM (inactive) | 14.2 µM (inactive) | 19.1 µM (inactive) | 21.9 µM (inactive) | 17.5 µM (inactive) | 35.9 µM (inactive) | 15.4 µM | 24.4 µM (inactive) | 15.8 µM (inactive) | 27.1 µM (inactive) | 5.09 µM (inactive) |  |  |  | 
NC(=O)N/N=C(\C(=O)C(=O)Nc1ccc(Cl)c(C(F)(F)F)c1)c1nc2ccc(C(=O)c3ccccc3)cc2nc1O | > 100 µM (inactive) | 44.3 µM (inactive) | > 100 µM (inactive) | 46.6 µM (inactive) | > 100 µM (inactive) | > 100 µM (inactive) | > 100 µM (inactive) | > 100 µM (inactive) | 66.4 µM (inactive) | > 100 µM (inactive) | > 100 µM | 27.5 µM (inactive) | 97.9 µM (inactive) | > 100 µM (inactive) | 45.7 µM (inactive) |  |  |  | 
CC(C)CC1NC(=O)C(Cc2ccccc2)NC(=O)C(Cc2ccccc2)NC(=O)C(NC(=O)C(Cc2ccc(OCc3ccccc3)cc2)NC(=O)OCc2ccccc2)CCNC1=O (stereo not given) (Cbz-Y(Bn)[Dab]FFL; lactam 2-C; configuration not given here) | 41.1 µM (inactive) | 76.4 µM (inactive) | > 100 µM (inactive) | 23 µM (inactive) | > 100 µM (inactive) | 18.6 µM (inactive) | > 100 µM (inactive) |  | > 100 µM (inactive) | 74.3 µM (inactive) | 41.3 µM | > 100 µM (inactive) | 87.1 µM (inactive) | 35.1 µM (inactive) | 63.1 µM (inactive) | 30.4 µM (inactive) | 68.2 µM (inactive) | 36.1 µM (inactive) | > 100 µM (inactive)
O/N=C1/COC(C(F)(F)F)(C(F)(F)F)C1 | > 100 µM (inactive) | > 100 µM (inactive) | > 100 µM (inactive) | > 100 µM (inactive) | > 100 µM (inactive) | > 100 µM (inactive) | > 100 µM (inactive) | > 100 µM (inactive) | > 100 µM (inactive) | > 100 µM (inactive) | > 100 µM | > 100 µM (inactive) | > 100 µM (inactive) | > 100 µM (inactive) | 0.0573 µM (active) | > 100 µM (inactive) | > 100 µM (inactive) |  | > 100 µM (inactive)
N#Cc1cccc(/C=N/C23CC4CC(CC(C4)C2)C3)c1 | > 100 µM (inactive) | > 10 µM (inactive) | > 100 µM (inactive) | > 100 µM (inactive) | > 100 µM (inactive) | > 100 µM (inactive) | > 100 µM (inactive) | > 100 µM (inactive) | > 100 µM (inactive) | > 100 µM (inactive) | > 100 µM | > 100 µM (inactive) | > 100 µM (inactive) | > 100 µM (inactive) | 76.2 µM (inactive) |  |  |  | 
COc1cc(/C=C2\CCC(C)(CN(C)C)C2=O)cc(OC)c1OC (stereo not given) | > 100 µM (inactive) | > 93.3 µM (inactive) | > 100 µM (inactive) | 50.7 µM (inactive) | > 100 µM (inactive) | > 100 µM (inactive) | > 100 µM (inactive) | > 100 µM (inactive) | > 100 µM (inactive) | > 100 µM (inactive) | > 100 µM | > 100 µM (inactive) | > 100 µM (inactive) | > 100 µM (inactive) | 63.4 µM (inactive) |  |  |  | 
COC(=O)[C@@H](NC1(c2ccccc2)c2ccccc2-c2ccccc21)[C@H](OC(=O)[C@H]1CCCN1S(=O)(=O)c1ccccc1)C(=O)OC | > 100 µM (inactive) | > 100 µM (inactive) | > 100 µM (inactive) | 82.2 µM (inactive) | > 100 µM (inactive) | > 100 µM (inactive) | > 100 µM (inactive) | > 100 µM (inactive) | > 100 µM (inactive) | > 100 µM (inactive) | > 100 µM |  | > 100 µM (inactive) | > 100 µM (inactive) | > 100 µM (inactive) | > 100 µM (inactive) | > 100 µM (inactive) | 72.9 µM (inactive) | > 100 µM (inactive)
CCOP(=O)(OCC)/C(C#N)=C/c1ccccn1 | > 100 µM (inactive) | > 100 µM (inactive) | > 100 µM (inactive) | > 100 µM (inactive) | > 100 µM (inactive) | > 100 µM (inactive) | > 100 µM (inactive) | > 100 µM (inactive) | > 100 µM (inactive) | > 100 µM (inactive) | > 100 µM | > 100 µM (inactive) | > 100 µM (inactive) | > 100 µM (inactive) | > 100 µM (inactive) | > 100 µM (inactive) |  | > 100 µM (inactive) | > 100 µM (inactive)
